Measured values taken from patent US20240309003A1, “HETEROCYCLIC COMPOUNDS AS TRIGGERING RECEPTOR EXPRESSED ON MYELOID CELLS 2 AGONISTS AND METHODS OF USE” (Vigil Neuroscience, Inc., priority 2021, published 2024).

Target: T1, human TREM2 (Homo sapiens, UniProt Q9NZC2)
T1 construct: expressed in transfected cells; host or cells: HEK293T
Test: TREM2 agonist potency by cellular phosphorylation of Syk (AlphaLisa) in HEK293T-hTREM2 cells
Type: cell-based
Conditions: HEK293 cells expressing human TREM2 and DAP12, Table D
In short: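 Agonist EC50 from a variable-slope four-parameter fit of % activation, based on AlphaLisa phospho-Syk levels in lysates. Cells: HEK293T-hTREM2 (with DAP12), treated 45 min at room temperature with compound in assay buffer.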

T1 sequence (Q9NZC2 19-230): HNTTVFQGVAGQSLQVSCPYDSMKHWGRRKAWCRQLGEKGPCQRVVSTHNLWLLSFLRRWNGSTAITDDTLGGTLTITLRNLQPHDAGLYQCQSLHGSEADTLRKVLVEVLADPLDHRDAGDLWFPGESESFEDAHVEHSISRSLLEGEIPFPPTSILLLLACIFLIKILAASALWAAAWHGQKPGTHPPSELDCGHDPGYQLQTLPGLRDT
T1 sequence (O43914 22-113 partner): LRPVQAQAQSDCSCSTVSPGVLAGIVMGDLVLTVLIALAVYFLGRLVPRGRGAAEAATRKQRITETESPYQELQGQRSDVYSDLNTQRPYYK

Row | EC50 | SMILES
1 | < 50 nM | Cc1ccc2c(C34CC(C(F)(F)F)(C3)C4)nc([C@H]3CCO[C@@H](c4cnn(C5CC5)c4)C3)nc2n1 [Example 221, 2-((2R,4S)-2-(1-cyclopropyl-1H-pyrazol-4-yl)tetrahydro-2H-pyran-4-yl)-7-methyl-4-(3-(trifluoromethyl)bicyclo[1.1.1]pentan-1-yl)pyrido[2,3-d]pyrimidine]
2 | 50 to 500 nM | [2H]C1([2H])C[C@@H](c2nc(-c3ccc(Cl)cc3F)c3nc(C)c(C)nc3n2)C[C@@H](c2cnn(C3CC3)c2)O1 [Example 189, 4-(4-chloro-2-fluorophenyl)-2-((2S,4R)-2-(1-cyclopropyl-1H-pyrazol-4-yl)tetrahydro-2H-pyran-4-yl-6,6-d2)-6,7-dimethylpteridine]
3 | < 50 nM | Cc1nc2nc(N3CCOC(c4cc[nH]c(=O)c4)C3)nc(-c3ccc(C(F)(F)F)nc3)c2nc1C (stereo not drawn) [Example 194, 4-(4-(6,7-dimethyl-4-(6-(trifluoromethyl)pyridin-3-yl)pteridin-2-yl)morpholin-2-yl)pyridin-2(1H)-one]
4 | 500 to 3000 nM | Cc1cc([C@@H]2C[C@H](c3cc4nc(C)c(C)cc4c(-c4ccc(F)cc4F)n3)CCO2)ccn1 [Example 226, 5-(2,4-difluorophenyl)-2,3-dimethyl-7-((2S,4R)-2-(2-methylpyridin-4-yl)tetrahydro-2H-pyran-4-yl)-1,6-naphthyridine]
5 | < 50 nM | [2H]C([2H])([2H])c1nc2nc([C@H]3CCO[C@@H](c4ccnc(C)c4)C3)nc(-c3ccc(Cl)c(F)c3F)c2nc1C([2H])([2H])[2H] [Example 137, 4-(4-chloro-2,3-difluorophenyl)-6,7-bis(methyl-d3)-2-((2R,4S)-2-(2-methylpyridin-4-yl)tetrahydro-2H-pyran-4-yl)pteridine]
6 | 50 to 500 nM | Cc1nc2nc(C3C[C@@H](C)O[C@@H](c4cn[nH]c4)C3)nc(-c3ccc(F)cc3F)c2nc1C (stereo partly drawn) [Example 168]
7 | 50 to 500 nM | Cc1nc2nc([C@H]3CCO[C@@H](c4cnn(C5CC(F)C5)c4)C3)nc(C34CC(C(F)(F)F)(C3)C4)c2nc1C (stereo in doubt) [Example 135, 2-((2R,4S)-2-(1-(3-fluorocyclobutyl)-1H-pyrazol-4-yl)tetrahydro-2H-pyran-4-yl)-6,7-dimethyl-4-(3-(trifluoromethyl)bicyclo[1.1.1]pentan-1-yl)pteridine]
8 | < 50 nM | Cc1cc([C@H]2C[C@@H](c3nc(-c4cc(F)c(Cl)c(F)c4)c4nc(C)c(C)nc4n3)CCO2)ccn1 (racemic) [Example 84, 4-(4-chloro-3,5-difluoro-phenyl)-6,7-dimethyl-2-[(2R,4S)-2-(2-methyl-4-pyridyl)tetrahydropyran-4-yl]pteridine]
9 | < 50 nM | Cc1nc2nc([C@H]3CCO[C@@H](c4cnn(C5CC5)c4)C3)nc(C3CCCCC3)c2nc1C [Example 247, 4-cyclohexyl-2-((2R,4S)-2-(1-cyclopropyl-1H-pyrazol-4-yl)tetrahydro-2H-pyran-4-yl)-6,7-dimethylpteridine]
10 | 50 to 500 nM | Cc1cnc2c(-c3ccc(F)cc3F)nc(N3C[C@@H](c4cnn(C5CC5)c4)O[C@@H](C)C3)nc2n1 [Example 114, (2R,6S)-2-(1-cyclopropyl-1H-pyrazol-4-yl)-4-(4-(2,4-difluorophenyl)-7-methylpteridin-2-yl)-6-methylmorpholine]
11 | 50 to 500 nM | [2H]C([2H])([2H])c1nc2nc([C@H]3CCO[C@@H](c4cnn(C([2H])([2H])[2H])c4)C3)nc(-c3ccc(C)cc3)c2nc1C([2H])([2H])[2H] [Example 173, 6,7-bis(methyl-d3)-2-((2R,4S)-2-(1-(methyl-d3)-1H-pyrazol-4-yl)tetrahydro-2H-pyran-4-yl)-4-(p-tolyl)pteridine]
12 | < 50 nM | Cc1cnc2c(-c3ccc(Cl)cc3F)nc([C@H]3C[C@@H](c4cnn(C5CC5)c4)O[C@@H](C)C3)nc2n1 [Example 128, 4-(4-chloro-2-fluorophenyl)-2-((2S,4R,6S)-2-(1-cyclopropyl-1H-pyrazol-4-yl)-6-methyltetrahydro-2H-pyran-4-yl)-7-methylpteridine]
13 | < 50 nM | [2H]C1([2H])C[C@H](c2nc(-c3ccc(Cl)cc3F)c3nc(C)c(C)nc3n2)C[C@]([2H])(c2cnn(C3CC3)c2)O1 [Example 192, 4-(4-chloro-2-fluorophenyl)-2-((2R,4S)-2-(1-cyclopropyl-1H-pyrazol-4-yl)tetrahydro-2H-pyran-4-yl-2,6,6-d3)-6,7-dimethylpteridine]
14 | 50 to 500 nM | [2H]C([2H])([2H])n1cc([C@H]2C[C@@H](c3nc(-c4ccc(F)cc4F)c4nc(C)c(C)nc4n3)CCO2)cn1 [Example 156]
15 | 3000 to 100000 nM | CC(=O)OCc1nc2c(-c3ccc(F)cc3F)nc([C@@H]3CCO[C@@H](c4cnn(C5CC5)c4)C3)cc2nc1C [Example 246, (7-((2R,4R)-2-(1-cyclopropyl-1H-pyrazol-4-yl)tetrahydro-2H-pyran-4-yl)-5-(2,4-difluorophenyl)-2-methylpyrido[3,4-b]pyrazin-3-yl)methylacetate]
16 | 500 to 3000 nM | COc1cccc([C@@H]2C[C@H](c3nc(-c4ccc(F)cc4F)c4nc(C)c(C)nc4n3)CCO2)n1 [Example 164, 4-(2,4-difluorophenyl)-2-((2S,4R)-2-(6-methoxypyridin-2-yl)tetrahydro-2H-pyran-4-yl)-6,7-dimethylpteridine]
17 | 500 to 3000 nM | Cc1cc([C@@H]2C[C@H](c3nc(-c4ccc(Cl)c(F)c4F)c4ncc(C)nc4n3)CCO2)ccn1 [Example 131, 4-(4-chloro-2,3-difluorophenyl)-7-methyl-2-((2S,4R)-2-(2-methylpyridin-4-yl)tetrahydro-2H-pyran-4-yl)pteridine]
18 | 50 to 500 nM | Cc1nc2nc(C3CCOC(c4cn[nH]c4)C3)nc(-c3ccc(F)cc3F)c2nc1C (stereo not drawn) [Example 167, 2-(2-(1H-pyrazol-4-yl)tetrahydro-2H-pyran-4-yl)-4-(2,4-difluorophenyl)-6,7-dimethylpteridine]
19 | 50 to 500 nM | Cc1cc([C@H]2C[C@@H](c3nc(-c4ccc(C(F)(F)F)nc4)c4nc(C)c(C)nc4n3)CCO2)ccn1 (racemic) [Example 4, 6,7-dimethyl-2-((2R,4S)-2-(2-methylpyridin-4-yl)tetrahydro-2H-pyran-4-yl)-4-(6-(trifluoromethyl)pyridin-3-yl)pteridine]
20 | 500 to 3000 nM | Cc1cc2nc([C@H]3CCO[C@@H](c4cnn(C5CC5)c4)C3)nc(-c3ccc(Cl)cc3F)c2nc1C [Example 222, 4-(4-chloro-2-fluorophenyl)-2-((2R,4S)-2-(1-cyclopropyl-1H-pyrazol-4-yl)tetrahydro-2H-pyran-4-yl)-6,7-dimethylpyrido[3,2-d]pyrimidine]
21 | < 50 nM | COc1ccc([C@H]2C[C@@H](c3nc(C45CC(C(F)(F)F)(C4)C5)c4nc(C)c(C)nc4n3)CCO2)cn1 [Example 141, 2-((2R,4S)-2-(6-methoxypyridin-3-yl)tetrahydro-2H-pyran-4-yl)-6,7-dimethyl-4-(3-(trifluoromethyl)bicyclo[1.1.1]pentan-1-yl)pteridine]

Same assay, conditions: HEK293 cells expressing human TREM2 and DAP12, Table D-2

Row | EC50 | SMILES
22 | < 50 nM | COCn1cc([C@H]2CN(c3nc(-c4ccc(F)cc4F)c4nc(C)c(C)nc4n3)C[C@@H](C3CC3)O2)cn1 [Example I-1736, (2R,6S)-2-cyclopropyl-4-[4-(2,4-difluorophenyl)-6,7-dimethyl-pteridin-2-yl]-6-[1-(methoxymethyl)pyrazol-4-yl]morpholine]
23 | 50 to 500 nM | Cc1nc2nc([C@H]3CCO[C@@H](c4cnn(C5CC5)c4)C3)nc(-c3ccc(F)cc3F)c2nc1C1CCCCC1 [Example I-1744, 6-cyclohexyl-2-((2R,4S)-2-(1-cyclopropyl-1H-pyrazol-4-yl)tetrahydro-2H-pyran-4-yl)-4-(2,4-difluorophenyl)-7-methylpteridine]
24 | < 50 nM | Cc1nc2nc([C@H]3CCO[C@@H](c4cnn(C5CC5)c4)C3)nc(-c3ccc(C(F)(F)F)cc3F)c2nc1C(F)F [Example I-1593, 2-[(2R,4S)-2-(1-cyclopropylpyrazol-4-yl)tetrahydropyran-4-yl]-6-(difluoromethyl)-4-[2-fluoro-4-(trifluoromethyl)phenyl]-7-methyl-pteridine]
25 | 500 to 3000 nM | Cc1nc2nc([C@H]3CCO[C@@H](c4cnn(C5CC5)c4)C3)nc(-c3ccc(C4CCC4)cc3F)c2nc1C [Example I-1182, 4-(4-cyclobutyl-2-fluoro-phenyl)-2-[(2R,4S)-2-(1-cyclopropylpyrazol-4-yl)tetrahydropyran-4-yl]-6,7-dimethyl-pteridine]
26 | < 50 nM | Cc1nc2nc(N3C[C@@H](C)O[C@@H](c4cnn(C5CC5)c4)C3)nc(-c3ccc4c(c3F)CCC4(F)F)c2nc1C [Example I-1485, (2S,6R)-2-(1-cyclopropylpyrazol-4-yl)-4-[6,7-dimethyl-4-(1,1,4-trifluoroindan-5-yl)pteridin-2-yl]-6-methyl-morpholine]
27 | < 50 nM | COCn1cc([C@H]2CN(c3nc(-c4ccc(F)cc4F)c4nc(C)c(C)nc4n3)C[C@@H](C)O2)cn1 [Example I-1441, (2S,6R)-4-[4-(2,4-difluorophenyl)-6,7-dimethyl-pteridin-2-yl]-2-[1-(methoxymethyl)pyrazol-4-yl]-6-methyl-morpholine]
28 | 50 to 500 nM | Cc1nc2cc([C@H]3CCO[C@@H](c4cnn(C5CC5)c4)C3)nc(-c3ccc(F)cc3F)c2nc1CO [Example I-1119, (7-((2R,4S)-2-(1-cyclopropyl-1H-pyrazol-4-yl)tetrahydro-2H-pyran-4-yl)-5-(2,4-difluorophenyl)-2-methylpyrido[3,4-b]pyrazin-3-yl)methanol]
29 | < 50 nM | CCCc1nc2c(-c3ccc(F)cc3F)nc(N3C[C@@H](C)O[C@@H](c4cnn(C5CC5)c4)C3)nc2nc1C [Example I-1293]
30 | 500 to 3000 nM | Cc1cc(-c2nc(N3C[C@@H](C)O[C@@H](c4cnn(C5CC5)c4)C3)nc3nc(C)c(C)nc23)on1 [Example I-1086, (2S,6R)-2-(1-cyclopropylpyrazol-4-yl)-4-[6,7-dimethyl-4-(3-methylisoxazol-5-yl)pteridin-2-yl]-6-methyl-morpholine]
